Experimental data reported in ChEMBL document CHEMBL1201862, “PubChem BioAssay data set” (2004).
The source made the active and inactive calls.

Experiments:
[1] = biological target: Large T antigen (Simian virus 40, UniProt P03070); format: functional, Betapolyomavirus macacae;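 note: Confirmatory-stage PubChem screen for compounds that inhibit SV40 T antigen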
[2] = cells; format: functional
[3] = biological target: T1, Insulin-degrading enzyme (Homo sapiens, UniProt P14735); assay: activators of recombinant IDE enzyme, dose response, counter-screen for IDE activator project, biochemical, fluorescence polarization (AID 588681)
T1 sequence (P14735 whole entry): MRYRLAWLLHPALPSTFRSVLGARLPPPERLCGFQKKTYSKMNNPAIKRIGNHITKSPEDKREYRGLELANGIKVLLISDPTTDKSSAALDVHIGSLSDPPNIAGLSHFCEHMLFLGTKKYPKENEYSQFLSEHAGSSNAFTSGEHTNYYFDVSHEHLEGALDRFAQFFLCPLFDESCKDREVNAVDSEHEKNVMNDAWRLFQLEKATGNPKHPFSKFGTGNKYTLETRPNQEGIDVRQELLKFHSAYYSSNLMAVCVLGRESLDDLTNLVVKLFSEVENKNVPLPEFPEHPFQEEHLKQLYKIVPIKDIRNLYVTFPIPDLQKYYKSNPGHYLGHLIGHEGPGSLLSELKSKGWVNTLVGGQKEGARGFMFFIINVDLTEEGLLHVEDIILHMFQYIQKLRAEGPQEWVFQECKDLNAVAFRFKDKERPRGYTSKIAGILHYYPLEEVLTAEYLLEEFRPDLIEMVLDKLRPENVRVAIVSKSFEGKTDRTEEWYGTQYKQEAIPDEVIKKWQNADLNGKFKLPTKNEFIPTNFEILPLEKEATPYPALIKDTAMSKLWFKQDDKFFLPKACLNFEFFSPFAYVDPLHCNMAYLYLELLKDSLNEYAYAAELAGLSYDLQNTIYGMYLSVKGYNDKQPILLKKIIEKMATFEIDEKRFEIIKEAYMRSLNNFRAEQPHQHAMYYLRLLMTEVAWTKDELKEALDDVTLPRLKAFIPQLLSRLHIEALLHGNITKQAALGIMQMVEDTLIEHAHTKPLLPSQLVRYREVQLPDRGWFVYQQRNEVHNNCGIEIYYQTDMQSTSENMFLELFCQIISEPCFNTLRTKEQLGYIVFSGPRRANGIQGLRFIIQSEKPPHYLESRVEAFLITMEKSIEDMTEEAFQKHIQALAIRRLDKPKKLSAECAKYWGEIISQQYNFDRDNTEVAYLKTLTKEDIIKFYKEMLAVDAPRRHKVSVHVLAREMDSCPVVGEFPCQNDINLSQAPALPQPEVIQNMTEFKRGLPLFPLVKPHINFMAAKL

[4] = biological target: T1, Insulin-degrading enzyme; assay: activators of endogenous IDE in HEK cells, dose response, cell-based, fluorescence polarization (AID 588439); format: functional
[5] = test system: HEK293; assay: HEK cell cytotoxicity by LDH release, dose response, cytotoxicity control for IDE activator project, fluorescence, HEK cells (AID 588440); format: functional, cell-based; settings: Homo sapiens;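 note: cytotoxicity by LDH release measuring loss of membrane integrity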
[6] = test system: HEK293; assay: optical interference in Abeta FP readout, dose response, artefact control for IDE activator project, biochemical, fluorescence polarization (AID 588442); format: functional, cell-based; settings: Homo sapiens
[7] = biological target: T2, Rac GTPase-activating protein 1 (Homo sapiens, UniProt Q9H0H5); assay: MgcRacGAP GTPase-activating activity inhibitors, confirmation, biochemical, ADP Hunter fluorescence, primary and confirmatory (AID 624330); format: functional
T2 sequence (Q9H0H5 whole entry): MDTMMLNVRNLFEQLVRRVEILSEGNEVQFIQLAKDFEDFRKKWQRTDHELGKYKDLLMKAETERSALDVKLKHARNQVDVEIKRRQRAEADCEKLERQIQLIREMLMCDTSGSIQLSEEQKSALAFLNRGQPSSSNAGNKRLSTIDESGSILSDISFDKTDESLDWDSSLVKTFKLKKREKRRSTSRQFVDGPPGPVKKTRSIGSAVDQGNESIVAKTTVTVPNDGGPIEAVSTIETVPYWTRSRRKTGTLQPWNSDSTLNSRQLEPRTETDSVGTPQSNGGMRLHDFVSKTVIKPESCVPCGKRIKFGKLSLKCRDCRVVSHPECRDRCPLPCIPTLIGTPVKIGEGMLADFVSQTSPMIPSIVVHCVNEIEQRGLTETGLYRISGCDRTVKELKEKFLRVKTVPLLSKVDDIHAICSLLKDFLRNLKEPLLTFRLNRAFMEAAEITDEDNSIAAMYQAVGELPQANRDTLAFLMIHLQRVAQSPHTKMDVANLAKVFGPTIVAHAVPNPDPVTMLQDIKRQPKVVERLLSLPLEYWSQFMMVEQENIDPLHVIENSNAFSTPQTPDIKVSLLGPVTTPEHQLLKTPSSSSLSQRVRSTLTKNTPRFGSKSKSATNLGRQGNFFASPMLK

[8] = biological target: Ras and Rab interactor 1/Tyrosine-protein kinase ABL1 (Homo sapiens, UniProt P00519+Q13671); format: functional;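 note: biochemical TR-FRET dose-response test measuring inhibition of binding between Rin1 and Abl proteins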
[9] = biological target: Cytochrome P450 3A4 (Homo sapiens, UniProt P08684);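 note: CYP3A4 tested as one member of a cytochrome P450 panel screen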
Sequence of Cytochrome P450 3A4 (P08684 whole entry): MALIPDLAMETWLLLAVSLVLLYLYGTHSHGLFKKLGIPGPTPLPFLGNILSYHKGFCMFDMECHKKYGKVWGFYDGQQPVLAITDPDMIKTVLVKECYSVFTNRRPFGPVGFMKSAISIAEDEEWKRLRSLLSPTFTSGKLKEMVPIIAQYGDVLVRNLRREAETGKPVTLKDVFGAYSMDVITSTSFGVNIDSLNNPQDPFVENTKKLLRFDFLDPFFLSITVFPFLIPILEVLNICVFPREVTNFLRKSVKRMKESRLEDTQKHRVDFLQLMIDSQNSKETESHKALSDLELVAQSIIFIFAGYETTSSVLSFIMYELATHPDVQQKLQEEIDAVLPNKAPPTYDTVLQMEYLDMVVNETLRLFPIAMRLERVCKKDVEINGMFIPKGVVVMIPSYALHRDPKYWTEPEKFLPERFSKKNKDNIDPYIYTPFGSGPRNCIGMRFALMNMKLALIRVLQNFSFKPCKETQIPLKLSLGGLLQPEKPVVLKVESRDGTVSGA

[10] = biological target: Cytochrome P450 2D6 (Homo sapiens, UniProt P10635);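 note: CYP2D6 member of a cytochrome P450 panel assay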
Sequence of Cytochrome P450 2D6 (P10635 whole entry): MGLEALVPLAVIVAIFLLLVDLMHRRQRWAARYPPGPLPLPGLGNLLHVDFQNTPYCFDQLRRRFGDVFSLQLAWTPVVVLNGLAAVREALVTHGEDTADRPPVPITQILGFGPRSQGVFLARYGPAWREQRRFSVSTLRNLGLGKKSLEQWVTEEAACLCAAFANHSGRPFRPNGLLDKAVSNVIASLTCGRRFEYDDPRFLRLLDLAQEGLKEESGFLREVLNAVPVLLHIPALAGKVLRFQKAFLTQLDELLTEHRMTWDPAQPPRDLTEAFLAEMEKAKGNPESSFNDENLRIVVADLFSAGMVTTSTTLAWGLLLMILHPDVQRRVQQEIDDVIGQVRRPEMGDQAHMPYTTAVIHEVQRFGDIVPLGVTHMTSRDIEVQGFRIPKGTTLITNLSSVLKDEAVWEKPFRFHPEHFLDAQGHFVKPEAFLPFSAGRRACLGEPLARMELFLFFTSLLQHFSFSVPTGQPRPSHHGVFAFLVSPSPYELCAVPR

[11] = biological target: Cytochrome P450 2C9 (Homo sapiens, UniProt P11712)
Sequence of Cytochrome P450 2C9 (P11712 whole entry): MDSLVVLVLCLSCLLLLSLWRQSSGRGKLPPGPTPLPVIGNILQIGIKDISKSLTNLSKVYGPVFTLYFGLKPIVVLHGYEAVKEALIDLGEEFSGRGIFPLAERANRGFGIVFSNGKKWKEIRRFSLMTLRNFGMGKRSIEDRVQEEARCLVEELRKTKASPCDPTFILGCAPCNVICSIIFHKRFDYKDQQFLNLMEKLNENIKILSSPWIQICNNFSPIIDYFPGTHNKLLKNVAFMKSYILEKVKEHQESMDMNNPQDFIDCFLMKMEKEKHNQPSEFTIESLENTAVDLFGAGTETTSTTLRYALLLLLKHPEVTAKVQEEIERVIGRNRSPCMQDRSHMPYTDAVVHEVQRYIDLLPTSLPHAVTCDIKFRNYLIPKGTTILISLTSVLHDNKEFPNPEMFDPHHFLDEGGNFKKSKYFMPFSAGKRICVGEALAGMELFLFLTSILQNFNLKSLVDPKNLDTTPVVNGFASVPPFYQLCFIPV

[12] = test system: Streptococcus sp. 'group A'; assay: growth inhibition of control SK(-) GAS strain, dose response, counter-screen for streptokinase expression inhibitor project, luminescence, kanamycin, BacTiterGlo, confirmation (AID 1900); format: functional, organism-based
[13] = biological target: T3, Streptokinase A (Streptococcus pyogenes serotype M1, UniProt P10520); assay: S. pyogenes streptokinase expression inhibitors, potency, dose response, plasminogen activation absorbance, OD405 (AID 1914); format: functional, Streptococcus pyogenes M1 GAS;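 note: secreted streptokinase activity via plasminogen activation per viability signal from cell pellet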
T3 sequence (P10520 whole entry): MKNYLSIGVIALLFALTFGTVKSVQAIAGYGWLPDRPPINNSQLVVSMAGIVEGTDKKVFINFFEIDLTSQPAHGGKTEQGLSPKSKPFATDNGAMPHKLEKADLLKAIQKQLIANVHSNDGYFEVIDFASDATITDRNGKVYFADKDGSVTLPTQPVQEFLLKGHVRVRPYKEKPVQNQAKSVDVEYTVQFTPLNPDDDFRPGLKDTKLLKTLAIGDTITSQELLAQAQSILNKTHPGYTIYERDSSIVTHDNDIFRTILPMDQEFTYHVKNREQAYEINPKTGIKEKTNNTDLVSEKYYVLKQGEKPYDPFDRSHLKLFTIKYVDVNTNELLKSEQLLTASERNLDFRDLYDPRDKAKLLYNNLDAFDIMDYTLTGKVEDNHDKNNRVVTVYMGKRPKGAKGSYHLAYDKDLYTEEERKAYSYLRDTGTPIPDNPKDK

[14] = test system: Streptococcus; assay: Group A Streptococcus viability loss, dose response, counter-screen for streptokinase expression inhibitor project, luminescence, BacTiterGlo (AID 1915); format: functional, organism-based;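 note: potency for reduction of bacterial viability or growth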
[15] = biological target: G-protein coupled receptor 55 (Homo sapiens, UniProt Q9Y2T6); assay: GPR55 agonists via beta-arrestin recruitment, primary screen, imaging, U2OS cells, beta-arrestin-GFP redistribution (AID 1961); format: functional
Sequence of G-protein coupled receptor 55 (Q9Y2T6 whole entry): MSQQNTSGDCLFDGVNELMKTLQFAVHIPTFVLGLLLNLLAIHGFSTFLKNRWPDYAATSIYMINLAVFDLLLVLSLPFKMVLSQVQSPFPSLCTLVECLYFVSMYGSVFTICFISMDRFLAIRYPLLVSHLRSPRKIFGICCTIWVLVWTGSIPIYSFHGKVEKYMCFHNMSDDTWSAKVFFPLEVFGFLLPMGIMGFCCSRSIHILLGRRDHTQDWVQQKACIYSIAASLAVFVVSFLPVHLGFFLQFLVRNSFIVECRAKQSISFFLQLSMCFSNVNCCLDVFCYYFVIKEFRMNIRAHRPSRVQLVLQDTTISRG

[16] = Luminescence Cell-Based Dose Retest to Confirm Inhibitors of Cancer Stem Cells. [Related pubchem assays (depositor defined):AID2717, AID2721]; format: functional; settings: Homo sapiens
[17] = biological target: Disintegrin and metalloproteinase domain-containing protein 17 (Homo sapiens, UniProt P78536); assay: ADAM17 protease inhibitors, dose response, counter-screen for ADAM10 exosite inhibitor project, biochemical, quenched FRET substrate (AID 743253)
Sequence of Disintegrin and metalloproteinase domain-containing protein 17 (P78536 whole entry, the tested form may be a part): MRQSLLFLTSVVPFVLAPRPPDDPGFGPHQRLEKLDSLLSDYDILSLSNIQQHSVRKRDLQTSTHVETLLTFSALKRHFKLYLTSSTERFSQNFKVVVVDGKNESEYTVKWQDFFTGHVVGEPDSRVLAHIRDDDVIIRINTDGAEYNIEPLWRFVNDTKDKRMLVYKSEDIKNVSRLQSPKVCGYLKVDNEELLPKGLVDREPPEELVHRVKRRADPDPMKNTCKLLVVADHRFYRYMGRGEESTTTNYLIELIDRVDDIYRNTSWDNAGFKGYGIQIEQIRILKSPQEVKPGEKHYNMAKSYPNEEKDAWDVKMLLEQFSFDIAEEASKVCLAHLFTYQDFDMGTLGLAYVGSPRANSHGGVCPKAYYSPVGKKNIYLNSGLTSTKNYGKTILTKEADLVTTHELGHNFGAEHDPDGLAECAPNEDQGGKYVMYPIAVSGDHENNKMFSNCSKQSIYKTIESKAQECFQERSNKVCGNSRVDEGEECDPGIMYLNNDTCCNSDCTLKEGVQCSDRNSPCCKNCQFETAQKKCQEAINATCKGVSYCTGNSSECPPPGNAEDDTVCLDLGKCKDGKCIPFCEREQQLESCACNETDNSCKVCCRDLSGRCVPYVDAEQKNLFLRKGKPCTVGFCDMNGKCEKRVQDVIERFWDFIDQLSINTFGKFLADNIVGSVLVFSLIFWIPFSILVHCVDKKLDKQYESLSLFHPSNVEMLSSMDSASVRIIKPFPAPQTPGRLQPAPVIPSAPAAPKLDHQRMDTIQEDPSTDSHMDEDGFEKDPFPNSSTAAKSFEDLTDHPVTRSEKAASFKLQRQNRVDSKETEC

[18] = biological target: T4, High affinity choline transporter 1 (Homo sapiens, UniProt Q9GZV3); assay: CHT inhibitors, dose response, cell-based, 5-point CRC, membrane potential dye (AID 504840); format: functional
T4 sequence (Q9GZV3 whole entry): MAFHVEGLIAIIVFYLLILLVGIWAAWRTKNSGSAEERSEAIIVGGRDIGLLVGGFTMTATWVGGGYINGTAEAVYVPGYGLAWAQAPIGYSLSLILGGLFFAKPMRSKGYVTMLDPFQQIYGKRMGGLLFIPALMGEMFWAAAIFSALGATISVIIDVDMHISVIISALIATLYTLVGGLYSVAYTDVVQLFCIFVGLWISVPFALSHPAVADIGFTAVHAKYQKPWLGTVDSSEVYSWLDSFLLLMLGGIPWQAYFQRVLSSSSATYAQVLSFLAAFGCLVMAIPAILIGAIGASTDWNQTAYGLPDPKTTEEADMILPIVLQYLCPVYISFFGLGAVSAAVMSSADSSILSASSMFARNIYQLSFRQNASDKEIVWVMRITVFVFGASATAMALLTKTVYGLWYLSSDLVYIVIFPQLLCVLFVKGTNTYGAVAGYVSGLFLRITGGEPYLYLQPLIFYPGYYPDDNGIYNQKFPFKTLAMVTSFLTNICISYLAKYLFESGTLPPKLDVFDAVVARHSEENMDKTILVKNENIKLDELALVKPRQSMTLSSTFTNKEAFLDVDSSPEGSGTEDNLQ

[19] = biological target: T4, High affinity choline transporter 1; assay: CHT inhibitors, dose response, cell-based, 10-point CRC, membrane potential dye (AID 588401); format: functional;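 note: membrane potential dye fluorescence of choline-evoked depolarization via CHT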
[20] = biological target: Mitogen-activated protein kinase 10 (Homo sapiens, UniProt P53779); assay: Dose response biochemical screening assay for inhibitors of c-Jun N-Terminal Kinase 3 (JNK3). [Related pubchem assays: 746 ]
Sequence of Mitogen-activated protein kinase 10 (P53779 whole entry): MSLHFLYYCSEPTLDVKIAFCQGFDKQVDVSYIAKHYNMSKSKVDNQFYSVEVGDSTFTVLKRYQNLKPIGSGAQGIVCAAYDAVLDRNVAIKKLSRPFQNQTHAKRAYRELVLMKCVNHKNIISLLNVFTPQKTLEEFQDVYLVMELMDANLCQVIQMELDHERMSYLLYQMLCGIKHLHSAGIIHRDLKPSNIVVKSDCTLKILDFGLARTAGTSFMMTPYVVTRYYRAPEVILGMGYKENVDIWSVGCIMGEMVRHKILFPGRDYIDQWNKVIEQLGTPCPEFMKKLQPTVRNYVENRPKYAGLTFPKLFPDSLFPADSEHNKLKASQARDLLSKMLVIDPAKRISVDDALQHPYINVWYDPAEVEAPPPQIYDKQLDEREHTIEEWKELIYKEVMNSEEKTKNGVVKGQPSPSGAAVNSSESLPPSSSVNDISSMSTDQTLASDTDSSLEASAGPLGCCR

Sequence of Large T antigen (P03070 whole entry): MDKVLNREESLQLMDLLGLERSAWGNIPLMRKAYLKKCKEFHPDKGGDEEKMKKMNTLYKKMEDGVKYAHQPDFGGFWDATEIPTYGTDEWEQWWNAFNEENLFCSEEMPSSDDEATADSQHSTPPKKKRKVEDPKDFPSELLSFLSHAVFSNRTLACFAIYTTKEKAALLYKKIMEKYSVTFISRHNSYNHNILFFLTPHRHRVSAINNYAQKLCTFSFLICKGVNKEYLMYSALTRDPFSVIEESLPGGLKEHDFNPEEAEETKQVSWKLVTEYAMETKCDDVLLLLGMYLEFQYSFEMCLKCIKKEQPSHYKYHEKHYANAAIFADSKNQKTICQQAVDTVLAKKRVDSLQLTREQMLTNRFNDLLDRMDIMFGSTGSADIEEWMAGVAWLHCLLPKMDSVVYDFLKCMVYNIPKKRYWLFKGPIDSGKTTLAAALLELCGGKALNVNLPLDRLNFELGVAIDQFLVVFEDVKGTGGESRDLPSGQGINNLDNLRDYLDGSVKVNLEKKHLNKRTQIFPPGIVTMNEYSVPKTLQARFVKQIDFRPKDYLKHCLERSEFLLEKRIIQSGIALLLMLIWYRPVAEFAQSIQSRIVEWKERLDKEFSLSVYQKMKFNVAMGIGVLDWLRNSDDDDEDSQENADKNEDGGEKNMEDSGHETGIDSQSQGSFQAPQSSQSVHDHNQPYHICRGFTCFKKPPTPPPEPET

## C/C(CC(=O)Nc1ccc(N(C)C)cc1)=N\NC(=O)c1ccncc1
[1]
  IC50: 13.7 µM (active)
[2]
  IC50: 0.31 µM (active)
[3]
  EC50: 26 µM (inactive)
[4]
  EC50: > 54.7 µM (inactive)
[5]
  IC50: > 89.2 µM (inactive)
[6]
  EC50: > 55.9 µM (inactive)
[7]
  IC50: 56.8 µM (active)

## COCCNC(=O)c1cc2c3ccccc3n(C)c2s1
[8]
  IC50: 14.6 µM (inactive)
[9]
  AC50: 28.2 µM (inconclusive)
[10]
  AC50: inconclusive
[11]
  AC50: inconclusive

## C=C(C)COc1ccc(-c2n[nH]cc2Oc2ccc(OC)cc2)c(O)c1
[12]
  EC50: 6.87 µM (active)
[13]
  EC50: 37.4 µM (active)
[14]
  EC50: 25.8 µM (active)
[15]
  EC50: > 32 µM (inactive)
[16]
  AC50: 5.47 µM (active)
[3]
  EC50: > 54.7 µM (inactive)
[4]
  EC50: 20.7 µM (inactive)
[5]
  IC50: 31.4 µM (inactive)
[6]
  EC50: > 54.7 µM (inactive)
[17]
  IC50: 12 µM (inactive)

## Cc1cc(NS(=O)(=O)c2ccc(NC(=O)C(C)Oc3cccc(C)c3C)cc2)nc(C)n1 (stereo unspecified)
[18]
  IC50: 10 µM (active)
[19]
  IC50: 7.23 µM (active)

## O=C(Nc1cccnc1)c1ccc(COc2ccccc2Br)o1
[20]
  IC50: > 93.1 µM (not active)
[18]
  IC50: 3.28 µM (active)
[19]
  IC50: 1.5 µM (active)
